Laboratory results from publication PMC6263254, “Solid-Phase Synthesis of Arylpiperazine Derivatives and Implementation of the Distributed Drug Discovery (D3) Project in the Search for CNS Agents” (Molecules, 2011).
Where two headings read alike, the source gives them in different places.

How the values were obtained:
[1] = target: T1, native serotonin 5-HT2A receptors (Rattus norvegicus, UniProt P14842); assay: Radioligand binding, [3H]-ketanserin, rat cortical membranes; conditions: read-out: Ki 5-HT2A; on Ki 5-HT2A: SEM ≤ 22%
T1 construct: from tissue; host or cells: rat cortex membranes
T1 sequence (P14842 whole entry): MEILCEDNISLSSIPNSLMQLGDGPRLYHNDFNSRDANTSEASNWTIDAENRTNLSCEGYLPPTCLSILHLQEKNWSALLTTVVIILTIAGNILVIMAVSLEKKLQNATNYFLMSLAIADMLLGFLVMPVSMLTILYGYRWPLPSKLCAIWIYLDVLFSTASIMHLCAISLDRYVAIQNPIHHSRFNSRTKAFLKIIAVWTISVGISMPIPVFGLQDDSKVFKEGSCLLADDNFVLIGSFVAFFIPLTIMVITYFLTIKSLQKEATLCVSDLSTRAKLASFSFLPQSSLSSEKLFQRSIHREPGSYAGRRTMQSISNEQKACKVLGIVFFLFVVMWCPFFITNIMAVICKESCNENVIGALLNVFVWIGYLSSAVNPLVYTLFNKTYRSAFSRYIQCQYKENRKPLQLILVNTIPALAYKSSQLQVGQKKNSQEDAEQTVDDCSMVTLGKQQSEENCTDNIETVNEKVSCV
Method: (§1) Membrane preparation and a general assay procedure were carried out according to the previously published protocols. Two compound concentrations were tested: 0.1 and 1 μM, each run in triplicate.

[2] = target: T2, native serotonin 5-HT1A receptors (Rattus norvegicus, UniProt P19327); assay: Radioligand binding, [3H]-8-OH-DPAT, rat hippocampal membranes; conditions: read-out: Ki 5-HT1A; further: SEM ≤ 22%
T2 construct: from tissue; host or cells: rat hippocampus membranes
T2 sequence (P19327 1-422): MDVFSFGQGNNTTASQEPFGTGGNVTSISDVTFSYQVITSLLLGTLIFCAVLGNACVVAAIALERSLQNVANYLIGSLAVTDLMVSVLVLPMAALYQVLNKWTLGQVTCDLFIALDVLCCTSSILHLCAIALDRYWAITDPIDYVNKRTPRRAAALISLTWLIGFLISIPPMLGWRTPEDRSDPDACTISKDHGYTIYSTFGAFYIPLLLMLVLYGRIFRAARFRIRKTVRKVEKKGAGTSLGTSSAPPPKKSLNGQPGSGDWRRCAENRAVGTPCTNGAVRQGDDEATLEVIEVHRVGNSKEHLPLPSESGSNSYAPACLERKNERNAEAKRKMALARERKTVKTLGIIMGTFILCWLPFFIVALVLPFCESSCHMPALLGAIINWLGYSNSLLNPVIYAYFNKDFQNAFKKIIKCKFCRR
Method: as §1

5-HT1A receptors = conditions: cited from earlier work
5-HT2A = conditions: cited from earlier work
[3] = parameters: method as in PMID 17321139; conditions: doses of 5–20 mg/kg; ref [4]; cited from earlier work

SMILES	potency estimated from few doses [1]	potency estimated from few doses [2]	also measured
O=C(NCCCN1CCN(c2cccc(C(F)(F)F)c2)CC1)[C@@H]1CCCN1C(=O)C12CC3CC(CC(C3)C1)C2 [10{8,6}, 1-(Adamantylcarbonyl)-N-{3-[4-((3-trifluoromethyl)phenyl)piperazin-1-yl]propyl}-L-prolinamide]	1650 nM	42 nM	–
O=C(N[C@H]1CC(=O)N(CCCN2CCN(c3cccc(C(F)(F)F)c3)CC2)C1=O)C1CCCCC1 [9{8,3}, N-((S)-1-{3-[4-((3-trifluoromethyl)phenyl)piperazin-1-yl]propyl}pyrrolidin-2,5-dion-yl)cyclohexanecarboxamide]	276 nM	170 nM	–
O=C(NCCCCN1CCN(c2cccc(C(F)(F)F)c2)CC1)[C@@H]1CCCN1C(=O)C12CC3CC(CC(C3)C1)C2 [10{9,6}, 1-(Adamantylcarbonyl)-N-{4-[4-((3-trifluoromethyl)phenyl)piperazin-1-yl]butyl}-L-prolinamide]	699 nM	8 nM	–
O=c1[nH]c2ccccc2n1CCN1CCN(c2cccc(C(F)(F)F)c2)CC1 [Flibanserin]	–	–	functional activity at 5-HT1A receptors (5-HT1A receptors; ref [1],[2]): agonist; functional activity at 5-HT2A receptors (5-HT2A; ref [1],[2]): antagonist
O=C(N[C@H]1CC(=O)N(CCCCN2CCN(c3cccc(C(F)(F)F)c3)CC2)C1=O)C1CCCC1 [9{9,2}, N-((S)-1-{4-[4-((3-trifluoromethyl)phenyl)piperazin-1-yl]butyl}pyrrolidin-2,5-dion-yl)cyclopentanecarboxamide]	79 nM	24 nM	–
O=C1C[C@H](NC(=O)C23CC4CC(CC(C4)C2)C3)C(=O)N1CCCCN1CCN(c2cccc(C(F)(F)F)c2)CC1 [9{9,6}, N-((S)-1-{4-[4-((3-trifluoromethyl)phenyl)piperazin-1-yl]butyl}pyrrolidin-2,5-dion-yl)-1-adamatanecarboxamide]	39 nM	21 nM	–
O=C1CC2(CCCC2)CC(=O)N1CCCCN1CCN(c2ncccn2)CC1 [buspirone, reference compound]	–	36 nM	–
O=C(NCCCCN1CCN(c2cccc(C(F)(F)F)c2)CC1)[C@@H]1CCCN1C(=O)C1CCCC1 [10{9,2}, 1-(Cyclopentylcarbonyl)-N-{4-[4-((3-trifluoromethyl)phenyl)piperazin-1-yl]butyl}-L-prolinamide]	191 nM	26 nM	–
CC(=O)N[C@H]1CC(=O)N(CCCN2CCN(c3cccc(C(F)(F)F)c3)CC2)C1=O [9{8,1}, N-((S)-1-{3-[4-((3-trifluoromethyl)phenyl)piperazin-1-yl]propyl}pyrrolidin-2,5-dion-yl)acetamide]	164 nM	129 nM	–
O=C(N[C@H]1CC(=O)N(CCCCN2CCN(c3cccc(C(F)(F)F)c3)CC2)C1=O)C1CCCCC1 [9{9,3}, N-((S)-1-{4-[4-((3-trifluoromethyl)phenyl)piperazin-1-yl]butyl}pyrrolidin-2,5-dion-3-yl)cyclohexanecarboxamide]	70 nM	19 nM	–
COc1ccccc1N1CCN(CCCCN2C(=O)C[C@H](NC(=O)C3CCCCC3)C2=O)CC1 [PZ-68]	–	–	functional activity at 5-HT1A receptors (5-HT1A receptors; ref [4]): partial agonist; functional activity at 5-HT2A receptors (5-HT2A; ref [4]): antagonist; in vivo antidepressant-like activity [3]: showed in vivo antidepressant-like activity
